Calls of active or inactive are those of the source.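 How the source made its calls: active means mean IC50 at or below a set limit; inactive means the rest.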
Test system: not listed separately
Assay: inhibitors of antigen receptor-driven NF-kB, dose response, 697 B cells, PMA/ionomycin, luminescence (AID 489034)
Settings: 697 B-cell NF-kB luciferase reporter, PMA/ionomycin, 16 h; at 80 µM (top of the series)

Row | Compound | inhibition
1 | N=c1c2c(n(Cc3ccc(Br)cc3)c3c1CCC3)CCCC2 | 60.6% (inactive)
2 | N=c1ccn2c(n1)O[C@H]1[C@@H](CO)[C@H](O)O[C@H]12 | 48.5%

Test system: 697 B-cell NF-kB luciferase reporter, PMA/ionomycin, 16 h
Assay: as above
Settings: not given

Row | Compound | IC50
3 | CC1(c2ccc3ccccc3c2)NC(=O)N(CC(=O)N2CCN(Cc3ccc(C#N)cc3)CC2)C1=O (stereo not given) | > 80000 nM (inactive)
4 | O=C(Nc1nc(-c2ccc(F)c(F)c2)cs1)c1ccc(OCC2CCCO2)cc1 (stereo not given) | > 80000 nM (inactive)
5 | CC(C)Cc1cc(C(C)(C)C)ccc1OC(=S)N(C)C | > 80000 nM (inactive)
6 | CC(C)(O)c1[nH]c2ccc(C#N)cc2c1C(C)(C)O | > 80000 nM (inactive)
7 | Nc1nc(Cl)nc2c1ncn2C1CC(O)C(CO)O1 (stereo not given) | > 80000 nM (inactive)
8 | C#CC(=O)N(c1ccc(OC)c(OC)c1)C(C(=O)NC1CCCC1)c1cccs1 (stereo not given) | 200 nM
9 | C#CC(=O)N(c1cccc(OC)c1)C(C(=O)NC1CCCC1)c1cccs1 (stereo not given) | 219 nM
10 | CCOc1ccc(-c2cc(CCCC(=O)Nc3cccc(OC)c3)no2)cc1 | 11300 nM
11 | CC(=O)c1cn(Cc2ccccc2C#N)c2ccccc12 | > 80000 nM (inactive)
12 | COc1ccc(/C=C/c2cc(-c3ccc(C)cc3)o[n+]2C)cc1 | 5740 nM
13 | O=S(=O)(NCC1CCCO1)c1ccc(-c2ccc(S(=O)(=O)NCC3CCCO3)cc2)cc1 (stereo not given) | > 80000 nM (inactive)
14 | c1ccc(-c2ccc(-c3nc(-c4ccccn4)no3)cc2)cc1 | 967 nM
15 | COc1cc2nc(NC(=O)c3ccccc3)sc(=O)c2cc1OC | 444 nM
16 | Nc1ncnc2c1ccn2[C@@H]1O[C@H](CO)[C@@H](O)[C@H]1O | 1010 nM
17 | O=C(CCl)N1CCCC1c1ccc2c(c1)OCCO2 (stereo not given) | 478 nM
18 | CCCCCCCCCCOC(=O)Cn1c(COc2ccccc2OC)[n+](C)c2ccccc21 | > 80000 nM (inactive)
19 | C#CC(=O)N(c1cc(OC)ccc1OC)C(C(=O)NC1CCCC1)c1cccs1 (stereo not given) | 219 nM
20 | OCCCNc1cc(-c2ccnc(Nc3cccc(Cl)c3)n2)ccn1 | < 160 nM
21 | COc1cccc2c1C(CO)N1C(C#N)C3CC(C(=O)O)C(C1C2)N3C (stereo not given) | 253 nM
22 | CC1CCc2c(sc(NC(=O)CSc3ncn[nH]3)c2C#N)C1 (stereo not given) | 209 nM
23 | C=C1C(O)[C@@H]2O[C@]3(CC[C@H](/C=C/C(C)[C@@H]4CC(C)=CC5(O[C@H](C[C@@](C)(O)C(=O)O)CCC5O)O4)O3)CC[C@H]2O[C@@H]1C(O)CC(C)[C@H]1OC2(CCCCO2)CCC1C (stereo not given in full) | < 160 nM
24 | COc1ccc(C(=O)CN2C(=O)c3ccccc3S2(=O)=O)cc1 | 691 nM
25 | Cc1cc(N2CCN(c3nc4ccccc4s3)CC2)n2ncnc2n1 | > 80000 nM (inactive)
26 | CCCCCCCCNc1ncnc2ccccc12 | > 80000 nM (inactive)

Row | Compound | IC50
27 | Cc1nn(-c2ccccc2)c(C)c1/C=N/NC(=O)c1cc(-c2cccs2)[nH]n1 | 21500 nM (inactive)
28 | O=C(NCCc1ccccc1)c1ccc2c(c1)OCCCO2 | 366 nM
29 | COc1ccc(CN(C)c2ccc(S(=O)(=O)N3CCN(C)CC3)cc2[N+](=O)[O-])cc1OC | > 80000 nM (inactive)
30 | CCCCCc1ccc(OCCCC[n+]2cccc(C)c2)c(CCCCC)c1 | > 80000 nM (inactive)
31 | COc1cc2c(cc1OC)[C@@H]1C(=O)c3ccc4c(c3O[C@@H]1CO2)C[C@H](C(C)C)O4 | > 80000 nM (inactive)
32 | O=C(O)CSCC(=O)Nc1ccc(C2CCCCC2)cc1 | 776 nM
33 | Cc1ccc(NC(=O)COc2ccc(N(C)C(=O)C(C)(C)C)cc2)cc1S(=O)(=O)N1CCCCC1 | > 80000 nM (inactive)
34 | Cc1ccc(C(=O)CN2C(=O)c3ccccc3S2(=O)=O)cc1 | 1330 nM
35 | Cc1ccc2nc(NC(=O)CCCC(=O)O)sc2c1 | 2130 nM
36 | Cc1cc([N+](=O)[O-])nn1Cc1ccccc1F | > 80000 nM (inactive)
37 | Cn1nc(CC(=O)Nc2ccc3c(c2)CCC3)c2ccccc2c1=O | > 80000 nM (inactive)
38 | CN(C(=O)OC(C)(C)C)c1ccc(-c2nc3ccccc3s2)cc1 | < 160 nM
39 | CCOc1cc(S(=O)(=O)NCc2ccncc2)ccc1Cl | > 80000 nM (inactive)
40 | Nc1nc(F)nc2c1ncn2[C@@H]1O[C@H](CO)[C@@H](O)[C@H]1O | 1370 nM
41 | CCCCCNC(=O)c1ccc2c(=O)n(CC3CCCO3)c(=O)[nH]c2c1 (stereo not given) | > 80000 nM (inactive)
42 | COC(=O)CCn1nnc(-c2ccc(C(C)C)cc2)n1 | < 160 nM
43 | O=C(CN1C(=O)c2ccccc2S1(=O)=O)c1ccc2c(c1)OCCO2 | < 160 nM
44 | Cn1nc(CC(=O)Nc2ccc3c(c2)OCCO3)c2ccccc2c1=O | 68700 nM (inactive)
45 | CCc1ccc(-c2nc(CS(=O)CC(=O)NCc3ccco3)c(C)o2)cc1 (stereo not given) | > 80000 nM (inactive)
46 | Cc1ccc(C(=O)Nc2cccc(C(F)(F)F)c2)cc1NC(=O)c1ccno1 | 4090 nM
47 | COc1cccc2c1C(=O)c1c(O)c3c(c(O)c1C2=O)C[C@@](O)(C(=O)CO)C[C@@H]3O[C@H]1C[C@H](N)[C@H](O)[C@H](C)O1 | > 80000 nM (inactive)
48 | CCOc1ccc(-n2c(-c3ccc(OC)cc3)c[n+]3c2CCCCC3)cc1 | > 80000 nM (inactive)
49 | C=CCn1c(C)cc(C(=O)CN2C(=O)c3ccccc3S2(=O)=O)c1C | 656 nM
50 | CCN1/C(=C/c2ccc3cc(C)ccc3[n+]2CC)Sc2ccccc21 | > 80000 nM (inactive)

Source: PubChem BioAssay AID489034 (Sanford-Burnham Center for Chemical Genomics, 2010)
